Laboratory results: patent publication US7320981B2, “Variolin derivatives as anti-cancer agents” (Pharma Mar, S.A., priority 2000, dated 2008)
Read-outs that look alike come from different tables or passages of the source.

Columns and labels:
[1] = test system: HT-29; test: SRB cell growth/viability assay, HT-29; conditions: for GI50: read-out: HT-29 GI50
From the text: (§1) A colorimetric type of assay, using sulforhodamine B (SRB) reaction has been adapted for a quantitative measurement of cell growth and viability: see Skehan, P. A. et al. J. Natl. Cancer Inst., 1990, 82, 1107-1112. This form of the assay employs 96 well cell culture microplates of 9 mm diameter (Faircloth, G. T.; Stewart, D. and Clement, J. J., Journal of Tissue and Culture Methods, 1983, 11, 201-205; Mosmann, T. Journal of Immunological Methods, 1983, 65, 55-63.).
(§2) Most of the cell lines are obtained from American Type Culture Collection (ATCC) derived from different human cancer types. Cells are maintained in RPMI 1640 10% FBS, supplemented with 0.1 g/l penicillin and 0.1 g/l streptomycin sulfate and then incubated at 37° C., 5% CO2 and 98% humidity. For the experiments, cells were harvested from subconfluent cultures using trypsin and resuspended in fresh medium before plating.
(§3) Cells are seeded in 96 well microtiter plates, at 5×10^3 cells per well in aliquots of 195 μl medium, and they are allowed to attach to the plate surface by growing in drug free medium for 18 hours. Afterward, samples are in aliquots of 5 pi in a ranging from 10 to 10-8 μg/ml dissolved in DMSO/EtOH (0.2% in PS buffer). After 48 hours exposure, the antitumour effect are measured by the SRB methodology: cells are fixed by adding 50 μl of cold 50% (w/v) trichloroacetic acid (TCA) and incubating for 60 minutes at 4° C. Plates are washed with deionized water and dried. 100 μl of SRB solution (0.4% w/v in 1% acetic acid) is added to each microtiter well and incubated for 10 minutes at room temperature. Unbound SRB is removed by washing with 1% acetic acid. Plates are air-dried and bound stain is solubilized with Tris buffer. Optical densities are read on an automated spectrophotometric plate reader at a single wavelength of 490 nm.
(§4) The values for mean +/− SD of data from triplicate wells are calculated Some parameters for cellular responses can be calculated: […], TGI=total growth inhibition (cytostatic effect) and LC=cell killing (cytotoxic effect).

[2] = test system: A-549; test: SRB cell growth/viability assay, A-549; conditions: for GI50: read-out: A-549 GI50
From the text: as §1, §2, §3, §4

[3] = Homo sapiens, HT-29, 48 h, read-out: HT-29 LC50
[4] = Homo sapiens, A549, 48 h, read-out: A-549 LC50

Row | Compound | GI50 ([1]; Homo sapiens, HT-29, 48 h) | CC50 [1, 3] | GI50 ([2]; Homo sapiens, A549, 48 h) | CC50 [2, 4] | CC50 [1] | GI50 ([1]; Table 2, HT-29, 48 hours exposure, SRB) | CC50 [2] | GI50 ([2]; Table 2, A-549, 48 hours exposure, SRB)
1 | Nc1nccc2c(-c3ccnc(N(C(=O)/C=C/c4ccccc4)C(=O)/C=C/c4ccccc4)n3)c3cccnc3n12 [Compound 24a, N′-biscinnamoyldeoxyvariolin] | 4.9 µM | > 120 µM | 0.12 µM | 12 µM | – | – | – | –
2 | O=C(C=Cc1ccccc1)Nc1nccc2c(-c3ccnc(N(C(=O)/C=C/c4ccccc4)C(=O)/C=C/c4ccccc4)n3)c3cccnc3n12 [Compound 24b, N′-biscinnamoyl-N-cinnamoyldeoxyvariolin] | 1.5 µM | 75 µM | 3 µM | 75 µM | – | – | – | –
3 | Nc1nccc2c(-c3ccnc(NC(=O)C(F)(F)F)n3)c3cccnc3n12 [Compound 26, N′-trifluoroacetyldeoxyvariolin] | 0.8 µM | 110 µM | 0.27 µM | 27 µM | – | – | – | –
4 | COc1nccc(-c2c3cccnc3n3c(N)nccc23)n1 [Compound 27, methoxydeoxyvariolin] | 0.17 µM | 34 µM | 0.068 µM | 2.7 µM | – | – | – | –
5 | Nc1nccc2c(-c3ccnc(N4CCCCC4)n3)c3cccnc3n12 [Compound 28a, piperidinyldeoxyvariolin] | 5.8 µM | > 29 µM | 8.7 µM | > 29 µM | – | – | – | –
6 | CCNc1nccc(-c2c3cccnc3n3c(N)nccc23)n1 [Compound 28b, N′-ethyldeoxyvariolin] | > 33 µM | > 33 µM | > 33 µM | > 33 µM | – | – | – | –
7 | CCCCN(C)c1nccc(-c2c3cccnc3n3c(N)nccc23)n1 [Compound 28c, N′-butylmethyldeoxyvariolin] | 2.9 µM | 23 µM | 2.9 µM | 23 µM | – | – | – | –
8 | Nc1nccc2c(-c3ccnc(NCc4ccccc4)n3)c3cccnc3n12 [Compound 28d, N′-benzyldeoxyvariolin] | 1.4 µM | 22 µM | 1.4 µM | 27 µM | – | – | – | –
9 | COc1ccc(CNc2nccc(-c3c4cccnc4n4c(NCc5ccc(OC)cc5)nccc34)n2)cc1 [Compound 29, N′,N-bis(p-methoxybenzyl)deoxyvariolin] | > 97 µM | > 97 µM | > 97 µM | > 97 µM | – | – | – | –
10 | bis-sulfinyldeoxyvariolin [Compound 20] | – | – | – | – | > 130 µM | 110 µM | > 130 µM | 54 µM
